Results on nine compounds are retold here after the supplement of paper PMC7806825.

In the series the test system is McpC ligand-binding domain (Salmonella Typhimurium SL1344). The series can be described thus: protein melting temperature (Tm) in presence of compound (degrees C); higher = more thermal stabilisation (possible ligand binding). To be noted: compound stock concentration: 10-20 mM, 2 uL in 10 uL reaction.

For the compound `OCC1(O)OC[C@@H](O)[C@@H](O)[C@H]1O` (stereo partly drawn) [D-Psicose], the protein melting temperature (Biolog plate: PM01) stood at 45.

Take `COC(=O)CCC(=O)O` [Mono-Methylsuccinate]: the protein melting temperature (Biolog plate: PM01) was 45.

For the compound `CN` [Methylamine], the protein melting temperature (Biolog plate: PM03B) stood at 45.8.

Consider `CC(O)CO` (configuration not stated) [1,2-Propanediol], for which the protein melting temperature (Biolog plate: PM01) was found to be 44.8.

For `O=C(O)C(O)COP(=O)(O)O` [D-3-Phospho-Glyceric acid], for the setting “Biolog plate: PM04A”, the protein melting temperature amounted to 44.9.

Regarding `O=C(O)[C@H](O)[C@@H](O)[C@H](O)[C@H](O)COP(=O)(O)O` [6-Phospho-Gluconic acid], the protein melting temperature (Biolog plate: PM04A) is 43.6.

Turning to `CSCC[C@H](NC(=O)CN)C(=O)O` [Gly-Met], the protein melting temperature came out at 45.2 (Biolog plate: PM03B) and 43.8 (Biolog plate: PM04A).

For `Nc1ncnc2c1ncn2[C@@H]1O[C@H](CO)[C@@H](O)[C@H]1O` [Adenosine], the protein melting temperature (Biolog plate: PM01) amounted to 43.8, the protein melting temperature (Biolog plate: PM03B) is 45.4 and the protein melting temperature (Biolog plate: PM05) worked out at 44.1.

Turning to `C[C@H](N)C(=O)N[C@@H](CCC(=O)O)C(=O)O` [Ala-Glu], the protein melting temperature (Biolog plate: PM03B) was found to be 45.2.
